# In patent publication US20100022491A1, “4-HYDROXY-2-OXO-2,3-DIHYDRO-1,3-BENZOTHIAZOL-7YL COMPOUNDS FOR MODULATION OF B2-ADRENORECEPTOR ACTIVITY” (ASTRAZENECA AB, priority 2006, published 2010):
# Counter-ions that a name gives are not always drawn.
# Target: T1, recombinant human α1D receptor (Homo sapiens, UniProt P25100)
# T1 construct: expressed in transfected cells; host or cells: HEK293
# T1 sequence (P25100 1-572): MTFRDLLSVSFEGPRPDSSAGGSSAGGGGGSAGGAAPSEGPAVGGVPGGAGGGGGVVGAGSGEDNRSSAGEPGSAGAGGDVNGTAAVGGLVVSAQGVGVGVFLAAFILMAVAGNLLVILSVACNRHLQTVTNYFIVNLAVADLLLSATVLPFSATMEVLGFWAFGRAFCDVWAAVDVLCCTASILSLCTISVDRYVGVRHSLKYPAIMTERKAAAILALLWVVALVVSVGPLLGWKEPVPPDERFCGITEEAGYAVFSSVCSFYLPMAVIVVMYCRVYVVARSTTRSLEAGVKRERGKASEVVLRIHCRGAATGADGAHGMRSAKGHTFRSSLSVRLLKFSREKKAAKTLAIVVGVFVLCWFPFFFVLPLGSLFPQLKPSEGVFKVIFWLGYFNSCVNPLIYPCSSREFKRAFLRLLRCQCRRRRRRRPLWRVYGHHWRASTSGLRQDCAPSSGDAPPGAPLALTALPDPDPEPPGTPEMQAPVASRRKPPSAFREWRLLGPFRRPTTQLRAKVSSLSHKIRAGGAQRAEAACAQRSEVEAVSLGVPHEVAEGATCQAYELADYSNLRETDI
# Assay: Adrenergic α1D selectivity binding assay ([3H]-prazosin)
# Conditions: inhibition of [3H]-prazosin (0.3 nM) binding, HEK293 membranes; for IC50: read-out: α1 bind pIC50 (converted)
# Summary of the method: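 Displacement of [3H]-prazosin (0.3 nM) from recombinant human α1D receptor in HEK293-cell membranes, 2 h at room temperature, pH 7.4 HEPES/EDTA/gelatin buffer. Filtration and scintillation counting, non-specific binding set with 10 μM BMY7378; four-parameter logistic fit gives pIC50.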
smiles,measurement,value
"O=C(CCNCCc1ccccc1)N(CCNCCc1ccc(O)c2[nH]c(=O)sc12)C1CCCCCC1 [Example 23, N-Cycloheptyl-N-(2-{[2-(4-hydroxy-2-oxo-2,3-dihydro-1,3-benzothiazol-7-yl)ethyl]amino}ethyl)-N^3-(2-phenylethyl)-β-alaninamide bis-trifluoroacetic acid salt]",α1 bind pIC50,7.2
"CC(C)(CN(CCNCCc1ccc(O)c2[nH]c(=O)sc12)C(=O)CCNCCc1ccccc1)c1ccccc1 [Example 45, N^1-(2-{[2-(4-Hydroxy-2-oxo-2,3-dihydro-1,3-benzothiazol-7-yl)ethyl]amino}ethyl)-N^1-(2-methyl-2-phenylpropyl)-N^3-(2-phenylethyl)-β-alaninamide bis-trifluoroacetic acid salt]",IC50,200 nM
"O=C(CCNCCc1ccc(F)cc1)N(CCNCCc1ccc(O)c2[nH]c(=O)sc12)C1CCCCC1 [Example 16, N-Cyclohexyl-N^3-[2-(4-fluorophenyl)ethyl]-N-(2-{[2-(4-hydroxy-2-oxo-2,3-dihydro-1,3-benzothiazol-7-yl)ethyl]amino}ethyl)-β-alaninamide bis-trifluoroacetic acid salt]",IC50,100 nM
"O=C(CCNCCc1ccc(O)cc1)N(CCNCCc1ccc(O)c2[nH]c(=O)sc12)C1CCCCC1 [Example 34, N-Cyclohexyl-N-(2-{[2-(4-hydroxy-2-oxo-2,3-dihydro-1,3-benzothiazol-7-yl)ethyl]amino}ethyl)-N^3-[2-(4-hydroxyphenyl)ethyl]-β-alaninamide bis-trifluoroacetic acid salt]",IC50,200 nM
"O=C(CCNCCc1cccc(Cl)c1)N(CCNCCc1ccc(O)c2[nH]c(=O)sc12)C1CCC(F)(F)CC1 [Example 47, N^3-[2-(3-Chlorophenyl)ethyl]-N^1-(4,4-difluorocyclohexyl)-N^1-(2-{[2-(4-hydroxy-2-oxo-2,3-dihydro-1,3-benzothiazol-7-yl)ethyl]amino}ethyl)-β-alaninamide bis-trifluoroacetic acid salt]",IC50,501 nM
"O=C(CCNCCc1cccc(F)c1F)N(CCNCCc1ccc(O)c2[nH]c(=O)sc12)C1CCCCCC1 [Example 56, N^1-Cycloheptyl-N^3-[2-(2,3-difluorophenyl)ethyl]-N^1-(2-{[2-(4-hydroxy-2-oxo-2,3-dihydro-1,3-benzothiazol-7-yl)ethyl]amino}ethyl)-β-alaninamide bis-trifluoroacetic acid salt]",IC50,251 nM
"CCCC[C@H](C)N(CCNCCc1ccc(O)c2[nH]c(=O)sc12)C(=O)CCNCCc1ccccc1 [Example 102, N-(2-{[2-(4-Hydroxy-2-oxo-2,3-dihydro-1,3-benzothiazol-7-yl)ethyl]amino}ethyl)-N-[(1S)-1-methylpentyl]-N^3-(2-phenylethyl)-β-alaninamide bis-trifluoroacetic acid salt]",IC50,100 nM
"O=C(CCNCCc1ccc(F)cc1F)N(CCNCCc1ccc(O)c2[nH]c(=O)sc12)C1CCCCCC1 [Example 55, N^1-Cycloheptyl-N^3-[2-(2,4-difluorophenyl)ethyl]-N^1-(2-{[2-(4-hydroxy-2-oxo-2,3-dihydro-1,3-benzothiazol-7-yl)ethyl]amino}ethyl)-β-alaninamide bis-trifluoroacetic acid salt]",IC50,50.1 nM
"O=C(CCNCCc1cccc(F)c1)N(CCNCCc1ccc(O)c2[nH]c(=O)sc12)C1CCCCC1 [Example 15, N-Cyclohexyl-N^3-[2-(3-fluorophenyl)ethyl]-N-(2-{[2-(4-hydroxy-2-oxo-2,3-dihydro-1,3-benzothiazol-7-yl)ethyl]amino}ethyl)-β-alaninamide bis-trifluoroacetic acid salt]",α1 bind pIC50,6.7
"CC(CN(C(=O)CCNCCc1ccccc1)C1CCCCC1)NCCc1ccc(O)c2[nH]c(=O)sc12 (stereo not drawn) [Example 105, N-Cyclohexyl-N-(2-{[2-(4-hydroxy-2-oxo-2,3-dihydro-1,3-benzothiazol-7-yl)ethyl]amino}propyl)-N^3-(2-phenylethyl)-β-alaninamide bis-trifluoroacetic acid salt]",IC50,79.4 nM
"O=C(CCNCCc1cccc(F)c1)N(CCNCCc1ccc(O)c2[nH]c(=O)sc12)C1CCCCCC1 [Example 36, N-Cycloheptyl-N^3-[2-(3-fluorophenyl)ethyl]-N-(2-{[2-(4-hydroxy-2-oxo-2,3-dihydro-1,3-benzothiazol-7-yl)ethyl]amino}ethyl)-β-alaninamide bis-trifluoroacetic acid salt]",IC50,158 nM
"O=C(CCNCCc1cccc(Cl)c1)N(CCNCCc1ccc(O)c2[nH]c(=O)sc12)C1CCCCCC1 [Example 50, N^3-[2-(3-Chlorophenyl)ethyl]-N^1-cycloheptyl-N^1-(2-{[2-(4-hydroxy-2-oxo-2,3-dihydro-1,3-benzothiazol-7-yl)ethyl]amino}ethyl)-β-alaninamide bis-trifluoroacetic acid salt]",IC50,79.4 nM
"O=C(CCNCCc1cccs1)N(CCNCCc1ccc(O)c2[nH]c(=O)sc12)C1CCCCC1 [Example 35, N-Cyclohexyl-N-(2-{[2-(4-hydroxy-2-oxo-2,3-dihydro-1,3-benzothiazol-7-yl)ethyl]amino}ethyl)-N^3-[2-(2-thienyl)ethyl]-β-alaninamide bis-trifluoroacetic acid salt]",IC50,158 nM
"O=C(CCNCCc1cccc(O)c1)N(CCNCCc1ccc(O)c2[nH]c(=O)sc12)C1CCCCCC1 [Example 37, N-Cycloheptyl-N-(2-{[2-(4-hydroxy-2-oxo-2,3-dihydro-1,3-benzothiazol-7-yl)ethyl]amino}ethyl)-N^3-[2-(3-hydroxyphenyl)ethyl]-β-alaninamide bis-trifluoroacetic acid salt]",IC50,200 nM
"O=C(CCNCCc1cc(F)cc(F)c1)N(CCNCCc1ccc(O)c2[nH]c(=O)sc12)C1CCCCC1 [Example 92, N-Cyclohexyl-N^3-[2-(3,5-difluorophenyl)ethyl]-N-(2-{[2-(4-hydroxy-2-oxo-2,3-dihydro-1,3-benzothiazol-7-yl)ethyl]amino}ethyl)-β-alaninamide dihydrobromide salt]",α1 bind pIC50,6.6
"O=C(CCNCCc1ccc(F)cc1Cl)N(CCNCCc1ccc(O)c2[nH]c(=O)sc12)C1CCCCCC1 [Example 57, N^3-[2-(2-Chloro-4-fluorophenyl)ethyl]-N^1-cycloheptyl-N^1-(2-{[2-(4-hydroxy-2-oxo-2,3-dihydro-1,3-benzothiazol-7-yl)ethyl]amino}ethyl)-β-alaninamide bis-trifluoroacetic acid salt]",IC50,50.1 nM
"O=C(CCNCCc1ccc(Cl)cc1)N(CCNCCc1ccc(O)c2[nH]c(=O)sc12)C1CCC(F)(F)CC1 [Example 48, N^3-[2-(4-Chlorophenyl)ethyl]-N^1-(4,4-difluorocyclohexyl)-N^1-(2-{[2-(4-hydroxy-2-oxo-2,3-dihydro-1,3-benzothiazol-7-yl)ethyl]amino}ethyl)-β-alaninamide bis-trifluoroacetic acid salt]",IC50,631 nM
"O=C(CCNCCc1cc(F)ccc1F)N(CCNCCc1ccc(O)c2[nH]c(=O)sc12)C1CCCCCC1 [Example 83, N^1-Cycloheptyl-N^3-[2-(2,5-difluorophenyl)ethyl]-N^1-(2-{[2-(4-hydroxy-2-oxo-2,3-dihydro-1,3-benzothiazol-7-yl)ethyl]amino}ethyl)-β-alaninamide bis-trifluoroacetic acid salt]",IC50,63.1 nM
"COc1cccc(CCNCCC(=O)N(CCNCCc2ccc(O)c3[nH]c(=O)sc23)CC(C)(C)C)c1 [Example 43, N^1-(2,2-Dimethylpropyl)-N^1-(2-{[2-(4-hydroxy-2-oxo-2,3-dihydro-1,3-benzothiazol-7-yl)ethyl]amino}ethyl)-N^3-[2-(3-methoxyphenyl)ethyl]-β-alaninamide bis-trifluoroacetic acid salt]",IC50,158 nM
"CC(C)(C)CN(CCNCCc1ccc(O)c2[nH]c(=O)sc12)C(=O)CCNCCc1ccc(Cl)c(Cl)c1 [Example 9, N^3-[2-(3,4-Dichlorophenyl)ethyl]-N-(2,2-dimethylpropyl)-N-(2-{[2-(4-hydroxy-2-oxo-2,3-dihydro-1,3-benzothiazol-7-yl)ethyl]amino}ethyl)-β-alaninamide bis-trifluoroacetic acid salt]",IC50,1000 nM
